Experimental findings from US9481654B2, “Compositions and methods for inhibition of the JAK pathway” (Rigel Pharmaceuticals, Inc., priority 2006, dated 2016) are described below.

SMILES strings stand for the structures.

Assay [1] deals with IL-4 stimulated CD23 upregulation in human Ramos B cells (JAK-1/JAK-3, Stat-6). As to the kind of experiment: Assay for Ramos B-Cell Line Stimulated with IL-4 (CD23 upregulation, FACS). The format is cell-based. To be noted: Table III Example 3. In a few lines: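 Flow cytometry of CD23 staining after 20-24 h IL-4 stimulation (50 units/mL final) of human Ramos B cells in RPMI with 5% serum. Cells, 5×10^4 per point, received compound or DMSO vehicle for 1 h at 37° C prior to stimulation.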

For assay [2], the system named is IFNγ induced ICAM-1 (CD54) up-regulation in A549 lung epithelial cells (JAK/Stat pathway). As to the kind of experiment: A549 Epithelial Line Stimulated with IFNγ (ICAM-1 surface expression, flow cytometry). The format is cell-based, human. The conditions noted are these: Table III Example 5. In a few lines:
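A549 cells (20,000/well, adhered overnight) pre-treated with compound 1 h, then IFNγ 75 ng/mL for 24 h; compound 30 μM–14 nM in 5% FBS, 0.3% DMSO. Surface ICAM-1 stained with APC anti-CD54, geometric mean by flow cytometry; dose-response gives EC50.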
In general terms: Flow cytometry measures light scatter and fluorescence of single cells or particles in a stream.

On to `CCCNS(=O)(=O)c1cc(Nc2ncc(C)c(Nc3ccc(CNS(=O)(=O)C4CC4)cc3)n2)ccc1C` [Compound I-187, N4-(4-cyclopropylsulfonylaminomethyl)phenyl-5-methyl-N2-(4-methyl-3-propylaminosulfonyl)phenyl-2,4-pyrimidinediamine], for which the half-inhibitory concentration (IC50) in assay [1] stood at 72.4 nM; in assay [2] it was 2420 nM.

Turning to `Cc1cnc(Nc2cccc(S(=O)(=O)NCc3ccccc3)c2)nc1Nc1ccc(CNS(=O)(=O)C2CC2)cc1` [Compound I-154, N2-(3-benzylaminosulfonyl)phenyl-N4-(4-cyclopropylsulfonylaminomethyl)phenyl-5-methyl-2,4-pyrimidinediamine], the IC50 in assay [1] was 84.6 nM; in assay [2] it was 6350 nM.

Consider `Cc1ccc(Nc2ncc(Cl)c(Nc3ccc(CNS(=O)(=O)C4CC4)cc3)n2)cc1S(N)(=O)=O` [Compound I-113, N2-(3-aminosulfonyl-4-methyl)phenyl-5-chloro-N4-(4-cyclopropylsulfonylaminomethyl)phenyl-2,4-pyrimidinediamine], for which the 50% inhibitory concentration (IC50) in assay [1] amounted to 18.6 nM; in assay [2] it was 888 nM.

In the case of `Cc1cnc(Nc2cccc(S(N)(=O)=O)c2)nc1Nc1ccc(CCNS(=O)(=O)C2CC2)cc1` [Compound I-54, N2-(3-aminosulfonyl)phenyl-N4-[4-(2-cyclopropylsulfonylamino)ethyl]phenyl-5-methyl-2,4-pyrimidinediamine], the results for the IC50 in assay [1] and in assay [2] were 94.3 nM and 4690 nM, respectively.

As for `CCNS(=O)(=O)c1cc(Nc2ncc(C)c(Nc3ccc(CNS(=O)(=O)C4CC4)cc3)n2)ccc1C` [Compound I-186, N4-(4-cyclopropylsulfonylaminomethyl)phenyl-N2-(3-ethylaminosulfonyl-4-methyl)phenyl-5-methyl-2,4-pyrimidinediamine], the 50% inhibitory concentration (IC50) in assay [1] came to 19.5 nM; in assay [2] it was 1760 nM.

Consider `Cc1ccc(Nc2ncc(C)c(Nc3ccc(CNS(=O)(=O)C(C)C)cc3)n2)cc1S(N)(=O)=O` [Compound I-117, N2-(3-aminosulfonyl-4-methyl)phenyl-N4-(4-isopropylsulfonylaminomethyl)phenyl-5-methyl-2,4-pyrimidinediamine], for which the 50% inhibitory concentration (IC50) in assay [1] was found to be 38.8 nM; in assay [2], 2170 nM.

By IC50 is commonly meant the midpoint of a concentration-inhibition curve. Low readings indicate greater potency, high ones weaker potency.
